These results are taken from patent publication US11312925B2, “Pyrithione preservative system and C1-C12 ethoxylated alcohol in hard surface cleaning products” (ECOLAB USA INC., priority 2015, dated 2022).

In data set [1] the test system is Bacterial cocktail (Staphylococcus aureus ATCC 6538, Escherichia coli ATCC 11229, Enterobacter aerogenes ATCC 13048, Burkholderia cepacia ATCC 25416 …). Kind of data set: Preservative test over 28 days in 7 and 18.5 grain water, bacterial counts (Example 5). Particulars: 140 ppm with 2000 ppm monosodium citrate versus 300 ppm with no added acidity. Type of data set: cell-based.
Method: (§1) For USP bacteria there must be no less than 2.0 log reduction from the initial inoculated count at 14 days, and no increase from the 14 days' count at 28 days. A result of “no increase” is defined as not more than 0.5 log higher than previous value. For additional standards examined the preservation capability of a composition is evaluated over a predetermined time (as identified in the Example) and the inhibition or reduction of microbial growth is assessed, without the requirement for complete elimination of the entire microbial inoculum.
Formulations of pyrithione preservatives were evaluated in existing solid rinse aid formulations for USP and commercial standards, modified to incorporate field isolate from a sump solution. The survival of both bacterial cocktail and fungal cocktails (as described in prior Example) were monitored over 28 days.
The bacteria inoculum was made up of equal parts of the organisms listed (incubated in tryptone glucose extract agar at 32° C. for 3 days):

Data set [2] relates to yeast and mold inoculum cocktail (Canidia albicans ATCC 10231, Saccharomyces cerevisiae ATCC 834, Aspergillus niger ATCC 16404). Particulars: over 3 weeks in sump solution; compared with the other evaluated preservatives; FIG. 1.
Method: In order to identify preservative systems for replacing Kathon CG-ICP (isothiazolinone blend) from solid rinse aid formulations, various potential preservatives were evaluated.
For performance reasons, the preservatives were tested with the 4500 MW polyacrylic acid polymer and 10% level of monosodium citrate or fumaric acid.
The test temperature was ambient (20° C.-26° C.) and exposure times were 0, 7, 14, 28 and 35 days.
The preservatives were formulated at their upper concentration levels before triggering the use of personal protective equipment and measured fungi recovered and pH.
For data set [3], the system named is Yeast and mold cocktail (Canidia albicans ATCC 10231, Saccharomyces cerevisiae ATCC 834, Aspergillus niger ATCC 16404). Kind of data set: Preservative test over 28 days in 7 and 18.5 grain water, yeast and mold counts (Example 5). In kind it is cell-based. Particulars: 140 ppm with 2000 ppm monosodium citrate versus 200 ppm bis (3-aminopropyl) dodecylamine in hard water.
Method: as §1
The survival of both bacterial cocktail and fungal cocktails (as described in prior Example) were monitored over 28 days.
The yeast and mold inoculum was made up of equal parts of the organisms listed (incubated in sabourand agar at 26° C. for 3 days):

Data set [4] is described as follows: Compatibility in solution with 4500 MW polyacrylic acid polymer under acidic conditions. Type of data set: physicochemical.

`On1ccccc1=S.[Na]` [sodium pyrithione, 1-hydroxy-2(1H)-pyridinethione, sodium salt]: in data set [1], the “inhibition of microorganisms (especially bacteria), comparison” value is reported as “much more effective at inhibiting microorganisms”. In addition, in data set [2], the “impact at reducing fungi (mean log fungi reduction)” value was “greatest impact at reducing fungi”. Besides, the “preservation performance, comparison” value in data set [3] is on record as “outperformed”.
In the case of `CCCCCCCCCCCCN(CCCN)CCCN` [bis (3-aminopropyl) dodecylamine, Bis (3-aminopropyl) dodecylamine], the “behaviour in solution with the 4500 MW polyacrylic acid polymer” value in data set [4] is recorded as “precipitate out of solution”.
